From BindingDB's records for doi:10.1021/jm020018f (Sphinx Laboratories, 2002)

Target: cAMP-dependent protein kinase catalytic subunit alpha (Bos taurus, UniProt P00517)
Assay: PKA assay
Settings: not given
Description: The activity of PKA, activated by cAMP, is measured by its ability to transfer phosphate from [gamma-32P]ATP to histone.

Structure (SMILES) | IC50
O=C(N[C@@H]1CNCCC[C@H]1OC(=O)c1cc(O)c(Cc2c(O)cccc2C(=O)O)c(O)c1)c1ccc(O)cc1 [2-{[2,6-dihydroxy-4-({[(3R,4R)-3-[(4-hydroxybenzene)amido]azepan-4-yl]oxy}carbonyl)phenyl]methyl}-3-hydroxybenzoic acid] | 470 nM
O=C(N[C@@H]1CNCCC[C@H]1OC(=O)c1cc(O)c(C(=O)c2ccc3ccccc3c2O)c(O)c1)c1ccc(O)cc1 [4-trans-[4-(1-Hydroxy-2-naphthoyl)-3,5-dihydroxybenzoyloxy]-3-(4-hydroxybenzamido)azepane] | > 150000 nM
O=C(N[C@@H]1CNCCC[C@H]1OC(=O)c1cc(O)c2c(=O)c3c(C(=O)O)cccc3oc2c1)c1ccc(O)cc1 [8-hydroxy-6-({[(3R,4R)-3-[(4-hydroxybenzene)amido]azepan-4-yl]oxy}carbonyl)-9-oxo-9H-xanthene-1-carboxylic acid] | > 15000 nM
COc1cccc(O)c1C(=O)c1c(O)cc(C(=O)O[C@@H]2CCCNC[C@H]2NC(=O)c2ccc(O)cc2)cc1O [(3R,4R)-3-[(4-hydroxybenzene)amido]azepan-4-yl 3,5-dihydroxy-4-[(2-hydroxy-6-methoxyphenyl)carbonyl]benzoate] | 250 nM
COc1cc(C(=O)O[C@@H]2CCCNC[C@H]2NC(=O)c2ccc(O)cc2)cc(OC)c1C(=O)c1c(O)cccc1O [(3R,4R)-3-[(4-hydroxybenzene)amido]azepan-4-yl 4-[(2,6-dihydroxyphenyl)carbonyl]-3,5-dimethoxybenzoate] | 4300 nM
COc1cccc(OC)c1C(=O)c1c(O)cc(C(=O)O[C@@H]2CCCNC[C@H]2NC(=O)c2ccc(O)cc2)cc1O [(3R,4R)-3-[(4-hydroxybenzene)amido]azepan-4-yl 4-[(2,6-dimethoxyphenyl)carbonyl]-3,5-dihydroxybenzoate] | 360 nM
O=C(N[C@@H]1CNCCC[C@H]1OC(=O)c1cc(O)c(C2OC(=O)c3cccc(O)c32)c(O)c1)c1ccc(O)cc1 (stereo partly drawn) [trans-4-[3,5-Dihydroxy-4-(4-hydroxy-3-phthlido)benzoyloxy]-3-(4-hydroxybenzamido)azepine] | 300 nM

Same assay, conditions: pH 7.5; 30 °C

Structure (SMILES) | IC50
O=C(N[C@@H]1CNCCC[C@H]1OC(=O)c1cc(O)c(C(=O)c2ccccc2C(=O)O)c(O)c1)c1ccc(O)cc1 | 1000 nM
O=C(N[C@@H]1CNCCC[C@H]1OC(=O)c1cc(O)c(C(=O)c2ccccc2O)c(O)c1)c1ccc(O)cc1 [4-trans-[4-(2-Hydroxybenzoyl)-3,5-dihydroxybenzoyloxy]-3-(4-hydroxybenzamido)azepane] | 440 nM
O=C(N[C@@H]1CNCCC[C@H]1OC(=O)c1cc(O)c(C(=O)[C@@H]2CCCC[C@@H]2C(=O)O)c(O)c1)c1ccc(O)cc1 [4-trans-[4-(cis-2-Carboxycyclohexanoyl)-3,5-dihydroxybenzoyloxy]-3-(4-hydroxybenzamido)azepane] | 7900 nM
O=C(N[C@@H]1CNCCC[C@H]1OC(=O)c1cc(O)c(C(=O)[C@@H]2CCCC[C@H]2C(=O)O)c(O)c1)c1ccc(O)cc1 [(1R,2R)-2-{[2,6-dihydroxy-4-({[(3R,4R)-3-[(4-hydroxybenzene)amido]azepan-4-yl]oxy}carbonyl)phenyl]carbonyl}cyclohexane-1-carboxylic acid] | 6700 nM
O=C(N[C@@H]1CNCCC[C@H]1OC(=O)c1cc(O)c(C(=O)c2c(O)cccc2O)c(O)c1)c1ccc(O)cc1 [(3R,4R)-3-[(4-hydroxybenzene)amido]azepan-4-yl 4-[(2,6-dihydroxyphenyl)carbonyl]-3,5-dihydroxybenzoate] | 440 nM
